Measured values reported in PubChem BioAssay (NCI).
Values joined by “and” are separate entries in the source; they are usually repeats but may differ in a detail not shown here. Equal entries are not always repeated.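 Test compounds were applied to cells in 96-well plates for 48 hours at 5 doses. Abbreviation: GI50, concentration required for 50% inhibition of growth. TGI: concentration producing complete growth inhibition.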

System: MDA-MB-468 breast
Test: DTP human tumour cell line panel, 48 h

## O=C(NCc1cccnc1)c1ccc([N+](=O)[O-])o1
  GI50: 5310 nM
  TGI: > 29000 nM

## CC(=O)OC1CCC2(C)C(=CCC3C4CC(CN5CC5)C(=O)C4(C)CCC32)C1 (centres undefined)
  GI50: 1680 nM
  TGI: 4490 nM

## CCNc1nc(-c2ccc(Cl)c(OC)c2)c(-c2ccnc(NCCNS(=O)(=O)c3ccc(Cl)cc3)n2)s1
  GI50: 1960 nM
  TGI: 5610 nM

## COc1cc(/C=C/C(=O)c2c(-c3ccc(Cl)cc3)nc3sc(C)nn23)cc(OC)c1OC
  GI50: 6470 nM
  TGI: > 100000 nM

## Cc1cccc(Cc2cnc(NC(=O)CCCOc3ccc(Cl)cc3)s2)c1
  GI50: 1740 nM
  TGI: > 100000 nM

## Cc1cc(N(CCCl)CCCl)ccc1/C=N\NC(=O)c1cccnc1
  GI50: 1460 nM
  TGI: 5410 nM

## COc1ccc(C[C@H](N)C(=O)N[C@@H]2[C@@H](CO)OC(n3cnc4c(N(C)C)ncnc43)[C@@H]2O)cc1 (some centres undefined)
  GI50: 134 nM
  TGI: 678 nM

## CCn1c(SC)nnc1-c1cc2c([nH]c3ccccc32)c(-c2cccc(O)c2)n1
  GI50: 598 nM
  TGI: 8220 nM

## Cn1c(=O)c(Oc2ccc(F)cc2F)cc2cnc(NC3CCC(O)CC3)nc21 (centres undefined)
  GI50: > 25000 nM
  TGI: > 25000 nM

## COc1ccc(S(=O)(=O)NCCCNc2nccc(-c3c(-c4ccc(F)cc4)nc4sccn34)n2)cc1
  GI50: 4300 nM
  TGI: > 100000 nM

## CCc1c[nH]c2ncnc(N3CC[C@](N)(CNC(=O)c4ccc(F)cc4F)C3)c12
  GI50: 139 nM
  TGI: 2230 nM

## Nc1ccc(N)c2c1C(=O)c1cccc([N+](=O)[O-])c1C2=O
  GI50: 3410 nM
  TGI: > 56800 nM

## OCCn1c(-c2ccncc2)c(-c2ccc(F)cc2)c2ncccc21
  GI50: > 25000 nM
  TGI: > 25000 nM

## c1csc(-c2[nH]nc3c2CCc2ccccc2-3)c1
  GI50: 175 nM
  TGI: 494 nM

## O=C1C(=O)c2c(ccc3ccccc23)-c2ccccc21
  GI50: 1560 nM
  TGI: 3260 nM

## O=C(Nc1cccc(C(F)(F)F)c1)Nc1ccc(OCc2nnc(-c3ccccc3)o2)c(F)c1
  GI50: 2570 nM
  TGI: 13900 nM

## CC[C@@H](CO)Nc1ccc2ncc(C#Cc3cncc(C(=O)Nc4ccc(CN5CCN(C)CC5)c(C(F)(F)F)c4)c3)n2n1
  GI50: 77.9 nM
  TGI: 194 nM

## CN1CCN(Cc2ccc(NC(=O)c3cncc(C#Cc4cnc5ccc(NCCCO)nn45)c3)cc2C(F)(F)F)CC1
  GI50: 87 nM
  TGI: 228 nM

## CS(=O)(=O)Nc1ccc(Nc2c3ccccc3nc3cc(Cl)ccc23)cc1
  GI50: 1990 nM
  TGI: 9880 nM

## O=C(c1ccccc1)c1ccc(N2C(=O)C3C4c5ccccc5C(/C=C/C(=O)c5ccccn5)(c5ccccc54)C3C2=O)cc1 (centres undefined)
  GI50: 2390 nM
  TGI: 6990 nM

## O=C(Nc1cccc(C(F)(F)F)c1)Nc1cc(S(=O)(=O)NC2CC2)ccc1-c1ccsc1
  GI50: 3100 nM
  TGI: 13800 nM

## Cc1c(-c2ccc(N3CCc4cccc(C(=O)Nc5nc6ccccc6s5)c4C3)nc2C(=O)O)cnn1CC12CC3CC(CC(C3)C1)C2
  GI50: 6580 nM
  TGI: 26500 nM

## Fc1ccc(-c2cc3nc(C(Cl)Cl)nc(-c4ccc(F)cc4)n3n2)cc1
  GI50: 242 nM
  TGI: 1080 nM

## CCC(=C(c1ccc(OCCN(CC)CC)cc1)c1ccc(OCCN(CC)CC)cc1)c1ccc(Cl)cc1
  GI50: 535 nM
  TGI: 1050 nM

## CC(=O)Nc1ccc(C(=O)COc2cccc(/C=C3\CCc4ccccc4C3=O)c2)cc1
  GI50: 3630 nM
  TGI: > 100000 nM

## COc1cc2nccc(Oc3ccc(NC(=O)C4(C(=O)Nc5ccc(F)cc5)CC4)cc3)c2cc1OC
  GI50: > 10000 nM and 4350 nM
  TGI: > 10000 nM and 64500 nM

## O=C(COC(=O)[C@H](C[Se][Se]C[C@H](NC(=O)c1ccc(Br)cc1F)C(=O)OCC(=O)c1ccc(F)cc1)NC(=O)c1ccc(Br)cc1F)c1ccc(F)cc1
  GI50: 580 nM
  TGI: 1680 nM

## C/C(=N\NC(=O)c1ccncc1)c1ccccc1O
  GI50: 2040 nM
  TGI: 9060 nM

## Oc1ccc(/C=N/Nc2nnc(N/N=C/c3ccc(O)cc3O)c3ccccc23)c(O)c1
  GI50: 355 nM
  TGI: 1770 nM

## CN1CCN(Cc2ccc(NC(=O)c3cncc(C#Cc4cnc5cccnn45)c3)cc2C(F)(F)F)CC1
  GI50: 1970 nM
  TGI: 8220 nM

## COc1cc(/C=N/n2cnc3oc(-c4ccccc4)cc3c2=N)cc(CN2CCCCC2)c1O
  GI50: 1800 nM
  TGI: 3650 nM

## O=C1COc2c(CCNCCN(C(=O)CCNCCc3ccc(Cl)c(Cl)c3)C3CCCCC3)ccc(O)c2N1
  GI50: 2770 nM
  TGI: 9420 nM

## COc1ccc(Cl)cc1Nc1nc(C(F)(F)F)ccc1C(=O)N/N=C/c1ccc(Cl)cc1
  GI50: 3960 nM
  TGI: > 100000 nM

## COc1cc(-c2nn(-c3cccc(NC(=O)c4cccc(C(F)(F)F)c4)c3)cc2-c2ccncc2)ccc1Cl
  GI50: 1320 nM
  TGI: 4560 nM

## COc1cc2c(cc1OCCCN1CCN(CCCn3c4ccccc4c4ccccc43)CC1)N=C[C@@H]1CCCN1C2=O
  GI50: 23.8 nM
  TGI: 67.7 nM

## C/C=C\C(=O)O[C@@H]1CC2O[C@@H]3C=C(C)C(=O)C[C@]3(C)[C@]1(C)[C@]21CO1
  GI50: 567 nM
  TGI: 2130 nM

## CN(C)C(=O)c1cc2cnc(Nc3ccc(N4CCNCC4)cn3)nc2n1C1CCCC1
  GI50: 13500 nM
  TGI: 37600 nM
